Assay results published in US20190133968A1, “Applications of benzophenones in preparation of drug” (SHANXI MEDICAL UNIVERSITY, priority 2016, published 2019).

Columns and labels:
chronic nephritis rats = assay: chronic nephritis rat model (passive Heymann nephritis); assay type: in vivo, SD rats; details: dexamethasone 0.1 mg/kg, gavage; for IL-1α / IL-1β / IL-6 / IL-10 / Scr: serum
Protocol: (§1) The solid dispersions are prepared through a solvent method, comprising steps of: respectively precisely weighing LM49, PVPK30 and tween80 with a weight ratio of 1:5:1, and A8, PVPK30 and tween80 with a weight ratio of 1:4:1; dissolving with appropriate absolute ethyl alcohol, continuously stirring, and uniformly mixing; placing on the water bath at 60° C., evaporating and removing the absolute ethyl alcohol, and obtaining a viscous material; placing in the freezer at −20° C., and freezing for 2 hours; taking out from the freezer, then placing in the vacuum drying oven, and drying for 24 hours; after becoming embrittlement, smashing and sieving with a sieve of 80 meshes, and then placing in the dryer for storage.
The passive Heymann nephritis is the classic model for researching the human chronic nephrosis. Thus, the present invention researches the effects of the two disclosed compounds on preventing the chronic nephritis with the model.
Ninety male SD rats having a weight of 180-220 g are selected, wherein: ten rats are selected as a blank group, and the remaining rats are used for preparing the rat Heymann nephritis models according to the method (disclosed in Journal of Proteomics, 2012, 75(3): pages 3866-3876). The successively established model rats are randomly divided into the model group, the positive control group (dexamethasone with a concentration of 0.1 mg/kg), the LM49 solid dispersion low-dose group (with the drug concentration of 3 mg/kg), the LM49 solid dispersion medium-dose group (with the drug concentration of 9 mg/kg), the LM49 solid dispersion high-dose group (with the drug concentration of 27 mg/kg), the A8 solid dispersion low-dose group (with the drug concentration of 3 mg/kg), the A8 solid dispersion medium-dose group (with the drug concentration of 9 mg/kg), and the A8 solid dispersion high-dose group (with the drug concentration of 27 mg/kg).
The rats of the blank group and the model group are administrated with the normal saline of same volume, and the rats of the other groups are respectively administrated with the drugs of the corresponding dose, by gavage, every day from model establishment for four weeks.
The blood of the rats of all groups is drawn at the second week and the fourth week from model establishment and 24-hour urine thereof is collected, for respectively measuring the contents of the urinary albumin, serum creatinine (Scr) in the serum, BUN, IL-1α, IL-1β, IL-6 and IL-10.
The data is represented in mean±(standard deviation) (x±s) and processed with the SPSS 19.0 statistical software. The one-way analysis of variance (ANOVA) is adopted for comparison among the groups, and then the LSD-Test is adopted for pairwise comparison. The differences of P<0.05 and P<0.01 are statistically significant.

[1] = test system: Escherichia coli ATCC25922 standard strain; assay: urinary and renal bacterial culture of acute pyelonephritis rats; assay type: in vivo, SD rats; details: norfloxacin 66.7 mg/kg, gavage, 10 days
Protocol: Ninety male SD rats having a weight of 180-220 g are selected, wherein: ten rats are selected as a sham-operated group (only being processed with ligation, without injecting with Escherichia coli), and the remaining rats are injected with Escherichia coli ATCC25922 standard strain having a concentration of 10^8/ml according to the method (disclosed in the Chinese Journal of Laboratory Animal Science, 1998, 8(1): pages 31-34) for preparing the acute pyelonephritis model rats.
After three days, urine of the rats is collected for bacterial culture, and the growth situation of the bacteria is observed. If the result is positive, the model rats are successively established; the unqualified rats are excluded, and the operation is made again for complementing the rats. The successively established model rats are randomly divided into the model group, the norfloxacin group (66.7 mg/kg), the LM49 solid dispersion low-dose group (with the drug concentration of 3 mg/kg), the LM49 solid dispersion medium-dose group (with the drug concentration of 9 mg/kg), the LM49 solid dispersion high-dose group (with the drug concentration of 27 mg/kg), the A8 solid dispersion low-dose group (with the drug concentration of 3 mg/kg), the A8 solid dispersion medium-dose group (with the drug concentration of 9 mg/kg), and the A8 solid dispersion high-dose group (with the drug concentration of 27 mg/kg).
The rats of the sham-operated group and the model group are administrated with the normal saline of same volume by gavage, and the rats of the other groups are respectively administrated with the drugs of the corresponding dose, once a day for consecutive ten days.
After finishing administration, urine of the rats of all groups is collected (for observing the bacterial growth situation). The abdominal aorta blood of the rats is drawn (for measuring the blood routine, CD4/CD8, urine creatinine and serum creatinine in the serum; and for measuring contents of IL-1α, IL-1β, IL-6, IL-10 and MCP-1 in the serum with the ELISA method). Two kidneys of each rat are cut (wherein a part is homogenated for bacterial culture, and the other part is used for observing the pathomorphology change).

DN rats = assay: type II diabetic nephropathy (DN) rat model (high-sugar high-fat diet + streptozocin); assay type: in vivo, SD (Sprague Dawley) rats; details: DN rats, captopril 15 mg/kg, gavage, 6 weeks
Protocol: as §1
The healthy adult male SD rats (having a weight of 180-220 g) are fed with the high-sugar and high-fat diet for 4 weeks; the rats are fasting overnight; and streptozocin (STZ) of 40 mg/kg is intraperitoneally injected into the rats. The rats of normal control group are injected with the sodium citrate buffer of same volume; 72 hours later, the rats are fasting for 12 hours. […] During the administration period, the successfully established model rats are still fed with the high-sugar and high-fat diet, while the rats of the normal control group are fed with the normal diet.
After administration for 6 weeks, 6-hour urine of the rats is collected with the metabolism cage.
The rats are fasting overnight and anesthetized intraperitoneally, then the abdominal aorta blood thereof is drawn for measuring the related indexes. The two kidneys of each rat are washed with the normal saline; weights of the kidneys are recorded; and the kidney coefficient (weights of two kidneys/body weight) is calculated. The renal tissues (comprising the glomerulus and renal tubules) at the same part of the left kidney are cut lengthwise and immersed in the 10% neutral formalin for pathomorphology analysis, and the other parts of the left kidney are used for biochemical index measurement; the right kidney is used for mechanism research and stored in the freezer at −80° C.
After successfully establishing the model rats, expect the normal control group (ten rats), the remaining rats are randomly divided into eight groups, wherein each group has twelve rats. The eight groups are respectively the model group, the LM49 solid dispersion low-dose group (with the drug concentration of 3 mg/kg), the LM49 solid dispersion medium-dose group (with the drug concentration of 9 mg/kg), the LM49 solid dispersion high-dose group (with the drug concentration of 27 mg/kg), the A8 solid dispersion low-dose group (with the drug concentration of 3 mg/kg), the A8 solid dispersion medium-dose group (with the drug concentration of 9 mg/kg), the A8 solid dispersion high-dose group (with the drug concentration of 27 mg/kg), and the captopril control group (with the drug concentration of 15 mg/kg).
Administration Way: By Gavage.
The rats of the normal control group and the model group are administrated with the normal saline of 1.0 ml/100 g; the rats of the positive control group, the LM49 solid dispersion high-dose, medium-dose and low-dose groups and the A8 solid dispersion high-dose, medium-dose and low-dose groups are respectively administrated with the drugs of different concentrations, and the administration volume is 1.0 ml/100 g.
The solid dispersions are dissolved by the normal saline; and the rats of the positive control group are administrated with the 0.5% CMC-Na (sodium carboxymethyl cellulose) suspension.
The rats are administrated seven days a week, for totally six weeks.
The IBM SPSS Statistics 20 software is used for data processing, and the data is represented in x±s. The one-way analysis of variance (ANOVA) is adopted for comparison among the groups. According to the homogeneity test results of variance, if the variance is equal, the LSD (least significant difference) test is adopted; if the variance is unequal, the Dunnett's T3 test is adopted. […]

Compound: C[C@@H]1C[C@H]2[C@@H]3CCC4=CC(=O)C=C[C@]4(C)[C@@]3(F)[C@@H](O)C[C@]2(C)[C@@]1(O)C(=O)CO [Dexamethasone, dexamethasone, reference compound]
- 24-hour urinary protein quantitation (chronic nephritis rats; Fourth week): 19.99 ± 3.5^ΔΔ mg/24 h
- 24-hour urinary protein quantitation (chronic nephritis rats; Second week): 20.87 ± 4.4^Δ mg/24 h
- IL-1α (chronic nephritis rats; Fourth week): 9.33 ± 4.22^Δ pg/ml
- IL-1β (chronic nephritis rats; Fourth week): 163.44 ± 59.31^Δ pg/ml
- IL-6 (chronic nephritis rats; Fourth week): 61.31 ± 25.66^ΔΔ pg/ml
- IL-10 (chronic nephritis rats; Fourth week): 29.44 ± 59.31^ΔΔ pg/ml
- Scr (chronic nephritis rats; Fourth week): 44.32 ± 13.3 µmol/L
- IL-1α (chronic nephritis rats; Second week): 10.47 ± 2.45^Δ pg/ml
- IL-1β (chronic nephritis rats; Second week): 184.55 ± 57.22^Δ pg/ml
- IL-6 (chronic nephritis rats; Second week): 87.01 ± 31.44^ΔΔ pg/ml
- IL-10 (chronic nephritis rats; Second week): 51.09 ± 7.55 pg/mL
- Scr (chronic nephritis rats; Second week): 46.22 ± 10.4 µmol/L

Compound: CCn1cc(C(=O)O)c(=O)c2cc(F)c(N3CCNCC3)cc21 [Norfloxacin, norfloxacin, reference compound]
- Renal bacterial culture score ([1]; mean score, scale 1-4 of Table 10 (colony number <10, >10, >100, >1000)): 1.2 ± 0.42^ΔΔ
- Urinary bacterial A value (OD600 nm) ([1]; urine culture): 0.254 ± 0.082^ΔΔ

Compound: C[C@H](CS)C(=O)N1CCC[C@H]1C(=O)O [captopril, reference compound]
- BUN (DN rats): 10.91 ± 1.15 mmol/L
- CREA (DN rats): 52.15 ± 3.40 µmol/L
- Glycated hemoglobin (DN rats): 8.88 ± 0.55%
- Urinary protein (DN rats; 6-hour urine): 5.93 ± 1.59^□□ mg/6 h
- mALB (microalbumin in urine) (DN rats; 6-hour urine): 76.69 ± 7.69^□□ μg/6 h
- ICAM-1 (DN rats; renal tissues): 246.36 ± 49.25 pg/mgprog
- IL-1β (DN rats; renal tissues): 102.32 ± 22.70 pg/mgprog
- IL-6 (DN rats; renal tissues): 107.50 ± 20.22^□□ pg/mgprog
- MDA (DN rats; renal tissues): 1.04 ± 0.24 nmol/mgprog
- NF-κB (DN rats; renal tissues): 174.49 ± 45.87^□□ pg/mgprog
- SOD (DN rats; renal tissues): 4.42 ± 0.94 U/mgprog
- T-AOC (DN rats; renal tissues): 1.48 ± 0.41 U/mgprog
- TGF-β1 (DN rats; renal tissues): 36.72 ± 11.42^□□ pg/mgprot
- TNF-α (DN rats; renal tissues): 292.79 ± 81.62^□ pg/mgprog
- VCAM-1 (DN rats; renal tissues): 23.79 ± 3.50 pg/mgprog
- Glucose (GLU) (DN rats; serum): 16.66 ± 4.34^□□ mmol/L
- HDL-C (DN rats; serum): 1.19 ± 0.35 mmol/L
- LDL-C (DN rats; serum): 1.80 ± 0.27^□□ mmol/L
- TC (DN rats; serum): 3.06 ± 0.43^□□ mmol/L
- TG (DN rats; serum): 0.37 ± 0.09^□□ mmol/L
- UA (DN rats; serum): 49.00 ± 3.24^□□ μmol/L
- Kidney coefficient (DN rats; weights of two kidneys/body weight): 1.02 ± 0.06%
